Assay results: paper PMC8414802, “Hair Cell Generation in Cochlear Culture Models Mediated by Novel γ-Secretase Inhibitors” (Frontiers in Cell and Developmental Biology, 2021)

Test system: Myo7a+ hair cells in rat cochlear organoids
Test: Rat cochlear organoids, hair cell differentiation
Format: cell-based
Conditions: for Total hair cells per organoid prior to normalization: end of differentiation, GSI 5 μM
Protocol: On day 0, the cochlear sensory epithelium was dissected and the OC was separated from the modiolus and stria vascularis, as described above, from either Wistar rat pups (P2), Lgr5-GFP mice (P0–P2) or Atoh1-GFP mice (P0–P2). To separate the sensory epithelial layer from underlying mesenchyme and neurons, the OC was placed in a 100 μl drop of Matrisperse Cell Recovery Solution (Corning) for 1 h at RT, then delaminated with the aid of forceps. Gentle enzymatic dissociation of hair cells and supporting cells followed with 100 μl drop of TrypLE (Gibco), 20 min at 37°C, then mechanical trituration in DMEM/F12. The cell suspension was centrifuged for 5 min at 500 g at 4°C and resuspended in DMEM/F12 medium supplemented with B27 and N2 (Invitrogen), EGF (50 ng/ml), bFGF (50 ng/ml), IGF (25 ng/ml), CHIR99021 (GSK-3β inhibitor, 3 μM, Merck), valproic acid (HDAC inhibitor, 1 mM, Sigma), 2-phospho-L-ascorbic acid (280 μM, Stemcell Technologies) and 0.01% ampicillin (Sigma). Cells were plated at 2,000 cells per well on 96 wells plate (Corning Costar; ultra-low attachment, round-bottom) to allow aggregation at 37°C. On day 1, Matrigel (GF-depleted, Corning; 2% stock) was added to a final concentration of 0.18 mg/ml. On day 3, cells were transferred to 24 wells plate (ultra-low attachment; Corning Costar), pooling the organoid aggregates from 4 to 5 wells (96 well-plate) to one 24-well, culturing at 37°C and exchanging half medium and Matrigel every other day, On day 10, organoids were differentiated by replacing medium with DMEM/F12 supplemented with B27, N2, CHIR99021 (3 μM), and Notch inhibitors CPD3 (5 μM) or LY411575 (5 μM), and culture was continued as above for another 10 days.
For staining and imaging, organoids were allowed to adhere ON onto transwell-permeable support membranes (Corning) in 12-well plates coated with 100% Matrigel. […] Compiled Z-projections were processed (FIJI, ver2.0) and hair cells quantified on individual planes with manual cell counter plugin, by evaluation of cytosolic expression and nuclear exclusion of Myo7a. […]

Compound | Hair cell numbers during differentiation (diff D20 vs exp D10, p < 0.05) | Total hair cells per organoid prior to normalization
COc1ccc2c(c1)N1CCC(C)(C)C1=CC(=O)[C@H]2NC(=O)[C@H](C)NC(=O)CCC(F)(F)F [CPD3] | significantly increased | 22.8 ± 18.0
C[C@H](NC(=O)[C@@H](O)c1cc(F)cc(F)c1)C(=O)N[C@@H]1C(=O)N(C)c2ccccc2-c2ccccc21 [LY411575] | – | 17.17 ± 20.9
